Measured values published in publication PMC3573112, “Compatibility in the Ustilago maydis–Maize Interaction Requires Inhibition of Host Cysteine Proteases by the Fungal Effector Pit2” (PLoS Pathogens, 2013).
Where a SMILES comes first, the peptide text is derived from it. The star is where a group is joined. AMC = Cc1cc(=O)oc2cc(N*)ccc12; Cbz = O=C(OCc1ccccc1)*

Columns and labels:
[1] = biological target: CP2 (corn cysteine protease 2) without signal peptide and prodomain, Gal4 activation domain fusion (pGADT7-CP2) (maize) (UniProt Q10717)
XCP2 = biological target: T1, XCP2 (Zea mays, UniProt B6TIC7); test: fluorimetric protease assay (AMC release), apoplastic fluid; type: biochemical; details: 2 µM substrate; pH 6.0, room temperature; DTT
T1 construct: transiently expressed in Nicotiana benthamiana (pGreenII 0029); apoplastic fluid, not purified

[2] = biological target: T2, CP2 (corn cysteine protease 2) (Zea mays, UniProt Q43705); test: fluorimetric protease assay (AMC release, […] nm); type: biochemical; details: 1 µM substrate; pH 6.0
T2 construct: gene see1
T2 sequence (Q43705 143-360 limits assumed): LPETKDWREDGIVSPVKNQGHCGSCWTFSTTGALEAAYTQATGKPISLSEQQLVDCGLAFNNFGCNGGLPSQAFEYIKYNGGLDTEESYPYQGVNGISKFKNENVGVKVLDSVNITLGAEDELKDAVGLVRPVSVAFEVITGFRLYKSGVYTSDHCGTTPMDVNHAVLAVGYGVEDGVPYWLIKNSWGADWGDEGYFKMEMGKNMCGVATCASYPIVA

CP1A = biological target: T3, CP1A (Zea mays, UniProt B6T669); test: fluorimetric protease assay (AMC release), apoplastic fluid; type: biochemical; details: 2 µM substrate; pH 6.0, room temperature; DTT
T3 construct: transiently expressed in Nicotiana benthamiana (pGreenII 0029); apoplastic fluid, not purified

CathepsinBIII (CatB) = biological target: T4, CathepsinBIII (CatB) (Zea mays, UniProt B6TLR9); test: as above; type: biochemical; details: 2 µM substrate; pH 6.0, room temperature; DTT
T4 construct: transiently expressed in Nicotiana benthamiana (pGreenII 0029); apoplastic fluid, not purified
T4 sequence (B6TLR9 93-347): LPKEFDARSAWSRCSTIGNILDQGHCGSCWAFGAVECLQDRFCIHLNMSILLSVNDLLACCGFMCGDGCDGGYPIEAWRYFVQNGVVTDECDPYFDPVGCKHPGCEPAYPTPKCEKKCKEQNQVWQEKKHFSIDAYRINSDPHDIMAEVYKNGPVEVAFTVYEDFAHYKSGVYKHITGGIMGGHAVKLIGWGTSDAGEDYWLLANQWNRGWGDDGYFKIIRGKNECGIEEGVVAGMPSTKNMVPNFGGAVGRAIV

CP2 = biological target: T5, CP2 (Zea mays, UniProt Q43705); test: as above; type: biochemical; details: 2 µM substrate; pH 6.0, room temperature; DTT
T5 construct: gene see1; transiently expressed in Nicotiana benthamiana (pGreenII 0029); apoplastic fluid, not purified
T5 sequence (Q43705 143-360): T2 sequence (Q43705 143-360 limits assumed)

[3] = biological target: T2, CP2 (corn cysteine protease 2); test: fluorimetric protease assay with Z-Phe-Arg-AMC; type: biochemical; details: 10 min preincubation; 1 µM Z-Phe-Arg-AMC; pH 6.0; covalent

T3 sequence (B6T669 130-463): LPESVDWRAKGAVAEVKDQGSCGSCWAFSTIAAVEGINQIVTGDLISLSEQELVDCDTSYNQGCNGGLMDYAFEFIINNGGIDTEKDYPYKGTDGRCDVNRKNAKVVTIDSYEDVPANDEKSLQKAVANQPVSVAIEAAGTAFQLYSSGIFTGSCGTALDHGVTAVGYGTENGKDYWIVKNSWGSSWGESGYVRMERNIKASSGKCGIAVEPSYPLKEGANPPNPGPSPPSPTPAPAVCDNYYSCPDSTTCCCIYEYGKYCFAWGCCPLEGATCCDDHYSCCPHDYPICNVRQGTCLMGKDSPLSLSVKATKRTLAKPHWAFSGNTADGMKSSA
T1 sequence (B6TIC7 158-377): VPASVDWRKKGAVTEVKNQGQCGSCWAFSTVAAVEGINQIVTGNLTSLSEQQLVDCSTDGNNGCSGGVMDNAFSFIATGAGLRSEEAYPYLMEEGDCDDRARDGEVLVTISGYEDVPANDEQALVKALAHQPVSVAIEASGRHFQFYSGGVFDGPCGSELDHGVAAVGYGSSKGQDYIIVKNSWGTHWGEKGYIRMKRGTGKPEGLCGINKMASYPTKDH

“GST-Pit2 (Pit2 without signal peptide with N-terminal GST-tag, pRSET-GST-PP-Pit2) (natural protein)” was tested. Which inhibition of the activity on Z-Phe-Arg-AMC of recombinant His-tagged CP2 (E. coli, refolded, activated by pH shift and pepsin) by 10 µM recombinant Pit2 (GST tag removed) [1] did it give?
The inhibition of the activity on Z-Phe-Arg-AMC of recombinant His-tagged CP2 (E. coli, refolded, activated by pH shift and pepsin) by 10 µM recombinant Pit2 (GST tag removed) was 85 % inhibition.

Which results are given for `Cc1cc(=O)oc2cc(NC(=O)[C@H](CCCNC(=N)N)NC(=O)[C@H](Cc3ccccc3)NC(=O)OCc3ccccc3)ccc12` [Z-Phe-Arg-7-amido-4-methylcoumarin] (Cbz-Phe-Arg-{AMC})?
fluorimetric protease assay (AMC release), apoplastic fluid (XCP2): Protease activity was determined using substrate Z-Phe-Arg-AMC; fluorimetric protease assay (AMC release, 460 nm) [2]: Protease-activity was determined using the fluorescent substrate Z-Phe-Arg-AMC; fluorimetric protease assay (AMC release), apoplastic fluid (CP1A): Protease activity was determined using substrate Z-Phe-Arg-AMC; fluorimetric protease assay (AMC release), apoplastic fluid (CathepsinBIII (CatB)): Protease activity was determined using substrate Z-Phe-Arg-AMC; fluorimetric protease assay (AMC release), apoplastic fluid (CP2): Protease activity was determined using substrate Z-Phe-Arg-AMC

For `CC(C)C[C@H](NC(=O)[C@H]1O[C@@H]1C(=O)O)C(=O)NCCCCN=C(N)N` [E-64], which “inhibition at 2.5 μM” value [3] is on record?
The value was “inhibited by addition of the specific small molecule cysteine protease inhibitor E-64”.
